Reference: patent publication US4886667A, “External preparation composition” (priority 1985, dated 1989)
Values after ≈ are worked out from the molar mass of the structure shown. Read-outs that look alike come from different tables or passages of the source.

Tests used:
[1] = test system: Trichophyton mentagrophytes IFO 5810; experiment: Antifungal activity in vivo by trichophytosis of guinea pig; conditions: 1% solution; for Fungal negativity index / Healing index: 0.1 ml once a day for 8 days, guinea pig trichophytosis
[2] = test system: Corynebacterium acnes ATCC 11828; experiment: Minimum inhibitory concentration (MIC), agar dilution method, standard strains; type: cell-based; conditions: for MIC: Cutibacterium acnes, read-out: Minimum inhibitory concentration to standard strains
[3] = test system: Trichophyton mentagrophytes IFO 5466; experiment: as above; type: cell-based; conditions: for MIC: read-out: Minimum inhibitory concentration to standard strains
[4] = test system: Bacteroides fragilis RIMD 023001; experiment: as above; type: cell-based; conditions: 37° C., 60 hrs; for MIC: RIMD023001, anaerobic; for Minimum inhibitory concentration to standard strains: anaerobic
[5] = test system: Trichophyton rubrum IFO 5467; experiment: as above; type: cell-based; conditions: for MIC: read-out: Minimum inhibitory concentration to standard strains
[6] = test system: Microsporum gypseum IFO 8231; experiment: as above; type: cell-based; conditions: for MIC: Nannizzia gypsea, read-out: Minimum inhibitory concentration to standard strains
[7] = test system: Staphylococcus aureus ATCC 6538P; experiment: as above; conditions: for MIC: Staphylococcus aureus, ATCC6538P, 48 h, read-out: Minimum inhibitory concentration to standard strains; for Minimum inhibitory concentration to standard strains: Staphylococcus aureus ATCC 6538P, aerobic, 37° C., 48 hrs
[8] = test system: Staphylococcus epidermidis ATCC 12228; experiment: as above; conditions: for MIC: Staphylococcus epidermidis, ATCC12228, 48 h, read-out: Minimum inhibitory concentration to standard strains; for Minimum inhibitory concentration to standard strains: Staphylococcus epidermidis ATCC 12228, aerobic, 37° C., 48 hrs
[9] = test system: Fusobacterium nucleatum ATCC 25586; experiment: as above; type: cell-based; conditions: 37° C., 60 hrs; for MIC: ATCC25586, anaerobic
[10] = test system: Candida albicans ATCC 10261; experiment: as above; conditions: for Minimum inhibitory concentration to standard strains: yeast, Sabouraud medium; for MIC: ATCC10261, read-out: Minimum inhibitory concentration to standard strains
[11] = test system: Staphylococcus pyogenes ATCC 10389; experiment: as above; conditions: aerobic, 37° C., 48 hrs
[12] = test system: Bacteroides fragilis (48 isolated strains); experiment: MIC against clinically isolated strains (cumulation percent); type: cell-based; conditions: for MIC: 60 h, read-out: range of effective concentration
[13] = Acute toxicity in mice; conditions: for LD50 / Mortalities (Dead/Treated): male mice; for LD50: 23040 min; for Mortalities (Dead/Treated): 16 days
[14] = test system: Clostridium perfringens (9 isolated strains); type: cell-based; conditions: 9 isolated strains of clostridium perfringens
[15] = test system: clinically isolated anaerobic bacteria; type: cell-based; conditions: 70 isolated strains of the tested bacteria
[16] = ATCC11828, Corynebacterium acnes ATCC 11828, anaerobic, 37° C., 60 hrs
[17] = IFO5466, Trichophyton mentagrophytes IFO 5466, aerobic, 168 hrs
[18] = IFO5467, Trichophyton rubrum IFO 5467, aerobic, 168 hrs
[19] = IFO8231, Microsporum gypseum IFO 8231, aerobic, 168 hrs
[20] = 48 isolated strains of Bacteroides fragilis, 100% efficiency stated for Ratanhiaphenol

Question: What does the source list for `Clc1ccccc1C(c1ccccc1)(c1ccccc1)n1ccnc1` [Clotrimazole]?
Answer: Fungal negativity index [1]: 88%; Healing index [1]: 60%

Question: Which MIC [2, 16] does the source give for `CC1(C)S[C@@H]2[C@H](NC(=O)[C@H](C(=O)O)c3ccsc3)C(=O)N2[C@H]1C(=O)O` [L, Ticarcillin] here?
Answer: 50 µg/mL (≈ 130 µM)

Question: And the MIC [3, 17]?
Answer: > 1000 µg/mL

Question: And the MIC [4]?
Answer: 50 µg/mL (≈ 130 µM)

Question: What about the MIC [5, 18] of the same molecule?
Answer: > 1000 µg/mL

Question: What about the MIC [6, 19] of the same molecule?
Answer: > 1000 µg/mL

Question: What about the MIC [7] of the same molecule?
Answer: 3.13 µg/mL (≈ 8.14 µM)

Question: And the MIC [8]?
Answer: 6.25 µg/mL (≈ 16.3 µM)

Question: What about the MIC [9] of the same molecule?
Answer: 6.25 µg/mL (≈ 16.3 µM)

Question: What does the source list for `CC1(C)S[C@@H]2[C@H](NC(=O)[C@H](NC(=O)c3cnc4cccnc4c3O)c3ccccc3)C(=O)N2[C@H]1C(=O)O` [M, Apalcillin]?
Answer: MIC [2, 16]: 25 µg/mL (≈ 47.9 µM); MIC [3, 17]: > 1000 µg/mL; MIC [4]: 50 µg/mL (≈ 95.9 µM); MIC [5, 18]: > 1000 µg/mL; MIC [6, 19]: > 1000 µg/mL; MIC [7]: 50 µg/mL (≈ 95.9 µM); MIC [8]: 25 µg/mL (≈ 47.9 µM); MIC [9]: 12.5 µg/mL (≈ 24 µM)

Question: For `Cc1cc(O)ccc1C(C)C` [N, Isopropylmethylphenol], which “Minimum inhibitory concentration to standard strains” value (shortened to “Minimum inhibitory concentration”) [4] is on record?
Answer: 400 µg/mL (≈ 2660 µM)

Question: And the “Minimum inhibitory concentration” value [7]?
Answer: 400 µg/mL (≈ 2660 µM)

Question: And the “Minimum inhibitory concentration” value [8]?
Answer: 200 µg/mL (≈ 1330 µM)

Question: And the “Minimum inhibitory concentration” value [10]?
Answer: 200 µg/mL (≈ 1330 µM)

Question: And the “Minimum inhibitory concentration” value [11]?
Answer: 100 µg/mL (≈ 666 µM)

Question: What does the source list for `COC1=CC(=O)C[C@@H](C)[C@]12Oc1c(Cl)c(OC)cc(OC)c1C2=O` [O, Griseofulvin]?
Answer: MIC [3, 17]: 6.25 µg/mL (≈ 17.7 µM); MIC [4]: 200 µg/mL (≈ 567 µM); MIC [5, 18]: 6.25 µg/mL (≈ 17.7 µM); MIC [6, 19]: 6.25 µg/mL (≈ 17.7 µM); MIC [7]: > 1000 µg/mL; MIC [8]: > 1000 µg/mL; MIC [10]: > 1000 µg/mL

Question: With `Cc1cccc(N(C)C(=S)Oc2ccc3ccccc3c2)c1` [P, Tolnaftate] as the molecule, how does the MIC [3, 17] read?
Answer: 0.1 µg/mL (≈ 0.325 µM)

Question: And the MIC [5, 18]?
Answer: 0.1 µg/mL (≈ 0.325 µM)

Question: What about the MIC [6, 19] of the same molecule?
Answer: 0.1 µg/mL (≈ 0.325 µM)

Question: And the MIC [7]?
Answer: > 1000 µg/mL

Question: And the MIC [8]?
Answer: > 1000 µg/mL

Question: What about the MIC [10] of the same molecule?
Answer: > 1000 µg/mL

Question: What about the MIC [9] of the same molecule?
Answer: 200 µg/mL (≈ 651 µM)

Question: For `C=CCCCCCCCCC(=O)O` [Q, Undecylenic acid], which MIC ([2]; ATCC11828, 60 h) is on record?
Answer: 400 µg/mL (≈ 2170 µM)

Question: And the MIC ([3]; Trichophyton mentagrophytes, IFO5466, 168 h)?
Answer: 12.5 µg/mL (≈ 67.8 µM)

Question: And the MIC ([5]; Trichophyton rubrum, IFO5467, 168 h)?
Answer: 12.5 µg/mL (≈ 67.8 µM)

Question: And the MIC ([6]; IFO8231, 168 h)?
Answer: 6.25 µg/mL (≈ 33.9 µM)

Question: And the MIC [7]?
Answer: > 1000 µg/mL

Question: And the MIC [8]?
Answer: > 1000 µg/mL

Question: What about the MIC [10] of the same molecule?
Answer: 200 µg/mL (≈ 1090 µM)

Question: Which MIC ([12]; Bacteroides fragilis) does the source give for `CN(C)[C@@H]1C(=O)C(C(N)=O)=C(O)[C@@]2(O)C(=O)C3=C(O)c4c(O)cccc4[C@@](C)(O)[C@H]3C[C@@H]12` [R, Tetracycline] here?
Answer: 1.56 to 400 µg/mL (≈ 3.51 to 900 µM)

Question: Which MIC [12, 20] does the source give for `CC1=C(C(=O)O)N2C(=O)[C@@H](NC(=O)[C@H](N)c3ccccc3)[C@H]2SC1` [S, Cefalexin] here?
Answer: 3.13 to 400 µg/mL (≈ 9.01 to 1150 µM)

Question: With `C[CH2][Hg][S]c1ccccc1C(=O)[O-].[Na+]` [Thimerosal] as the molecule, how does the Fungal negativity index [1] read?
Answer: 100%

Question: And the Healing index [1]?
Answer: 100%

Question: For Ratanhiaphenol [F], which “Minimum inhibitory concentration” value ([2]; Corynebacterium acnes ATCC 11828, anaerobic, 37° C., 60 hrs) is on record?
Answer: 6.25 µg/mL

Question: What about the LD50 ([13]; oral administration) of the same molecule?
Answer: 5000 mg/kg

Question: What about the toxicity ([13]; oral or subcutaneous single dose, mice) of the same molecule?
Answer: low

Question: What about the abnormal sign ([13]; oral or subcutaneous single dose, mice, 16 days observation) of the same molecule?
Answer: no abnormal sign was observed

Question: What about the “Mortalities (Dead/Treated)” value ([13]; oral, 1 g/kg) of the same molecule?
Answer: 0/5

Question: And the “Mortalities (Dead/Treated)” value ([13]; oral, 5 g/kg)?
Answer: 2/5

Question: And the LD50 ([13]; subcutaneous administration)?
Answer: > 5000 mg/kg

Question: And the “Mortalities (Dead/Treated)” value ([13]; subcutaneous, 1 g/kg)?
Answer: 0/5

Question: And the “Mortalities (Dead/Treated)” value ([13]; subcutaneous, 5 g/kg)?
Answer: 0/5

Question: What about the “Minimum inhibitory concentration” value ([3]; Trichophyton mentagrophytes IFO 5466, aerobic, 168 hrs) of the same molecule?
Answer: 1.56 µg/mL

Question: What about the “Minimum inhibitory concentration” value [4] of the same molecule?
Answer: 6.25 µg/mL

Question: What about the “Minimum inhibitory concentration” value ([5]; Trichophyton rubrum IFO 5467, aerobic, 168 hrs) of the same molecule?
Answer: 1.56 µg/mL

Question: And the “Minimum inhibitory concentration” value ([6]; Microsporum gypseum IFO 8231, aerobic, 168 hrs)?
Answer: 0.78 µg/mL

Question: What about the “Minimum inhibitory concentration” value [7] of the same molecule?
Answer: 0.39 µg/mL

Question: What about the “Minimum inhibitory concentration” value [8] of the same molecule?
Answer: 0.39 µg/mL

Question: What about the “range of effective concentration” value [12, 20] of the same molecule?
Answer: 1.56 to 6.25 µg/mL

Question: And the “healing effect compared with 1% clotrimazole solution” value [1]?
Answer: equivalent to that of 1% clotrimazole solution

Question: What about the Fungal negativity index [1] of the same molecule?
Answer: 81%

Question: What about the Healing index [1] of the same molecule?
Answer: 67%

Question: And the “Minimum inhibitory concentration” value [10]?
Answer: > 10 µg/mL

Question: And the “Minimum inhibitory concentration” value ([9]; anaerobic)?
Answer: 6.25 µg/mL

Question: And the “Minimum inhibitory concentration” value [11]?
Answer: 0.10 µg/mL

Question: And the “range of effective concentration (100% efficiency)” value [14]?
Answer: 3.13 to 12.5 µg/mL

Question: What about the “range of effective concentration (100% efficiency)” value [15] of the same molecule?
Answer: 1.56 to 12.5 µg/mL
